Assay [1] addresses T1, human ALK2 R206H (Homo sapiens, UniProt Q04771, R206H).
T1 construct: expressed in transfected cells; host or cells: HEK293 (ATCC CRL1573), lentivirus transduction, blasticidin selection
T1 sequence (Q04771 21-509 R206H): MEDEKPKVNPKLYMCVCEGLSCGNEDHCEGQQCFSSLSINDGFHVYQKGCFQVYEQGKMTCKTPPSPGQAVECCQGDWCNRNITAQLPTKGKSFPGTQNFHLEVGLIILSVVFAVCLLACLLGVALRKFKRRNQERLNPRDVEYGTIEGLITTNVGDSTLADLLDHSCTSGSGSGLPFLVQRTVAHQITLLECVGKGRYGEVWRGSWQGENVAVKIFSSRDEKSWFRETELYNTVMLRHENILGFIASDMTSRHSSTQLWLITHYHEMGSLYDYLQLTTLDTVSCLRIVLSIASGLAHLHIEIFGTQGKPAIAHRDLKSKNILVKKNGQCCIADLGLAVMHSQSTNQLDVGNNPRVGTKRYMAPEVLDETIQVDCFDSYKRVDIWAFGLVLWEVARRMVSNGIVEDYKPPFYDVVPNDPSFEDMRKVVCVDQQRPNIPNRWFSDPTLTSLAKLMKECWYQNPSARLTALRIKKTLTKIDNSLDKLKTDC
Description: Cell-based ALK2-R206H cell activity assay (Smad1-Ser463/Ser465 phosphorylation by AlphaLISA in HEK293-ALK2-R206H cells). Particulars: read-out: Cell Line (Cell Assay IC50). Summed up:
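Stable HEK293 cells expressing C-terminally FLAG-tagged human ALK2 R206H (lentiviral, blasticidin-selected) were treated with compounds in 10-point, 3-fold dilutions from 10 μM or 1 μM top, in duplicate. Smad1 Ser463/Ser465 phosphorylation was read by AlphaLISA.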
On the technique in general: Bead proximity is the source of the signal in Alpha formats.

Assay [2] deals with T2, ALK2 R206H (GST-tagged mutant ALK2) (Homo sapiens, UniProt Q04771, R206H).
T2 construct: purchased Carna Bioscience or ThermoFisher 09-148 or PV6232
T2 sequence (Q04771 21-509 R206H): T1 sequence (Q04771 21-509 R206H)
Description: ALK binding assay (LANTHASCREEN TR-FRET competitive binding, displacement of Kinase Tracer 178). Particulars: ALK2 R206H, LANTHASCREEN TR-FRET competitive binding; read-out: Binding Assay (IC50). On the technique in general: In TR-FRET formats the signal depends on donor and acceptor labels being close together.

As a reminder, the IC50 is the point on the concentration scale where inhibition reaches its midpoint.

In the case of `CC(C)N1CCN[C@H](c2ccc(-c3cc4c(N5CCN(C(=O)C6CC6)CC5)ccnn4c3)cc2)C1` [Compound 517], the values for the IC50 in assay [1] and in assay [2] were below 100 nM and below 10 nM, respectively.

As to `CC(C)N1CCN[C@@H](c2ccc(-c3cc4c(N5CCN(C(=O)C6CC6)CC5)ccnn4c3)cc2)C1` [Compound 518], the figures for the IC50 in assay [1] and in assay [2] were below 100 nM and below 10 nM, respectively.

In the case of `CC(C)NC(=O)N1CCN(c2ccnn3cc(-c4ccc(C56CCN(CC5)CC6)cc4)cc23)CC1` [Compound 519], the IC50 in assay [1] was below 100 nM; in assay [2] it was below 10 nM.

Turning to `CC(C)N1CCOCC1c1ccc(-c2cc3c(N4CCN(C(=O)C5CC5)CC4)ccnn3c2)cc1` (centres unmarked) [Compound 520], the half-maximal inhibitory concentration (IC50) in assay [1] was below 100 nM; in assay [2], below 10 nM.

Regarding `COC1(c2ccc(-c3cc4c(N5CCN(C(=O)C6CC6)CC5)ccnn4c3)cc2)CN(C(C)C)C1` [Compound 521], the results for the IC50 in assay [1] and in assay [2] were below 100 nM and below 10 nM, respectively.

With `CC(C)N1CC[C@](O)(c2ccc(-c3cc4c(N5CCN(C(=O)C6CC6)CC5)ccnn4c3)cc2)C1` [Compound 522], the IC50 in assay [1] is below 100 nM; in assay [2] it was below 10 nM.

With `CC(C)N1CC[C@@](O)(c2ccc(-c3cc4c(N5CCN(C(=O)C6CC6)CC5)ccnn4c3)cc2)C1` [Compound 523], the concentration for half-maximal inhibition (IC50) in assay [1] is below 100 nM; in assay [2], below 10 nM.

Regarding `CCOC1(c2ccc(-c3cc4c(N5CCN(C(=O)C6CC6)CC5)ccnn4c3)cc2)CCNCC1` [Compound 524], the results for the 50% inhibitory concentration (IC50) in assay [1] and in assay [2] were below 100 nM and below 10 nM, respectively.

`CC(C)N1CC[C@@](O)(c2ccc(-c3cc4c(N5CCN(C(=O)C6CC6)CC5)ccnn4c3)nc2)C1` [Compound 526]: the half-maximal inhibitory concentration (IC50) in assay [1] is below 100 nM; in assay [2], below 10 nM.

Consider `CC(C)N1CC[C@](O)(c2ccc(-c3cc4c(N5CCN(C(=O)C6CC6)CC5)ccnn4c3)nc2)C1` [Compound 527], for which the IC50 in assay [1] is below 100 nM; in assay [2], below 10 nM.

Turning to `CCCNC(=O)N1CCN(c2ccnn3cc(-c4ccc([C@@H]5CCN(C(C)C)C5)cc4)cc23)CC1` [Compound 530], the IC50 is below 100 nM in assay [1] and below 10 nM in assay [2].

Regarding `CC(C)NC(=O)N1CCN(c2ccnn3cc(-c4ccc([C@@H]5CCN(C(C)C)C5)cc4)cc23)CC1` [Compound 531], the IC50 is below 100 nM in assay [1] and below 10 nM in assay [2].

As to `CCCNC(=O)N1CCN(c2ccnn3cc(-c4ccc([C@H]5CCN(C(C)C)C5)cc4)cc23)CC1` [Compound 532], the IC50 in assay [1] is below 100 nM; in assay [2], below 10 nM.

Take `CC(C)NC(=O)N1CCN(c2ccnn3cc(-c4ccc([C@H]5CCN(C(C)C)C5)cc4)cc23)CC1` [Compound 533]: the IC50 in assay [1] was below 100 nM; in assay [2] it was below 10 nM.

With `CCOC(=O)N1CCN(c2ccnn3cc(-c4ccc(C5CCN(C(C)C)CC5)cc4)cc23)CC1` [Compound 534], the 50% inhibitory concentration (IC50) in assay [1] was below 100 nM; in assay [2], below 10 nM.

Consider `CCNC(=O)N1CCN(c2ccnn3cc(-c4ccc(C5CN(C(C)C)CCN5)cc4)cc23)CC1` (centres unmarked) [Compound 537], for which the IC50 in assay [1] is below 100 nM; in assay [2], below 10 nM.

Turning to `CCNC(=O)N1CCN(c2ccnn3cc(-c4ccc([C@@H]5CCCN(C(C)C)C5)cn4)cc23)CC1` [Compound 538], the half-inhibitory concentration (IC50) was below 100 nM in assay [1] and below 10 nM in assay [2].

`CCNC(=O)N1CCN(c2ccnn3cc(-c4ccc([C@H]5CCCN(C(C)C)C5)cn4)cc23)CC1` [Compound 539]: the IC50 in assay [1] is below 100 nM; in assay [2], below 10 nM.

As for `CC(C)NC(=O)N1CCN(c2ccnn3cc(-c4ccc(C5(O)CN(C(C)C)C5)cc4)cc23)CC1` [Compound 540], the IC50 in assay [1] is below 100 nM; in assay [2], below 10 nM.

For `COC1(c2ccc(-c3cc4c(N5CCN(C(=O)NC(C)C)CC5)ccnn4c3)cc2)CCNCC1` [Compound 541], the half-inhibitory concentration (IC50) is below 100 nM in assay [1] and below 10 nM in assay [2].

With `CO[C@]1(c2ccc(-c3cc4c(N5CCN(C(=O)NC(C)C)CC5)ccnn4c3)cc2)CCCNC1` [Compound 542], the IC50 is below 100 nM in assay [1] and below 10 nM in assay [2].

For `CO[C@@]1(c2ccc(-c3cc4c(N5CCN(C(=O)NC(C)C)CC5)ccnn4c3)cc2)CCCNC1` [Compound 543], the IC50 in assay [1] was below 100 nM; in assay [2] it was below 10 nM.

For the molecule `CCOC(=O)N1CCN(c2ccnn3cc(-c4ccc([C@@H]5CCCN(C(C)C)C5)cn4)cc23)CC1` [Compound 544], the half-inhibitory concentration (IC50) in assay [1] was below 100 nM; in assay [2], below 10 nM.

In the case of `CCOC(=O)N1CCN(c2ccnn3cc(-c4ccc([C@H]5CCCN(C(C)C)C5)cn4)cc23)CC1` [Compound 545], the values for the IC50 in assay [1] and in assay [2] were below 100 nM and below 10 nM, respectively.

`CCNC(=O)N1CCN(c2ccnn3cc(-c4ccc(N5CCN(C(C)C)CC5)cn4)cc23)CC1` [Compound 546]: the 50% inhibitory concentration (IC50) is below 100 nM in assay [1] and below 10 nM in assay [2].

In the case of `CCNC(=O)N1CCN(c2ccnn3cc(-c4ccc(C5CCN(C(C)C)CC5)nn4)cc23)CC1` [Compound 548], the IC50 in assay [1] was above 500 nM; in assay [2], below 10 nM.

Consider `CCOC(=O)N1CCN(c2ccnn3cc(-c4ccc([C@@]5(O)CCN(C(C)C)C5)cc4)cc23)CC1` [Compound 550], for which the 50% inhibitory concentration (IC50) in assay [1] is below 100 nM; in assay [2], below 10 nM.

`CCOC(=O)N1CCN(c2ccnn3cc(-c4ccc([C@]5(O)CCN(C(C)C)C5)cc4)cc23)CC1` [Compound 551]: the half-inhibitory concentration (IC50) was below 100 nM in assay [1] and below 10 nM in assay [2].

For `CCNC(=O)N1CCN(c2ccnn3cc(-c4cnc(N5CCN(C(C)C)CC5)cn4)cc23)CC1` [Compound 554], the IC50 in assay [1] was 100 to 500 nM; in assay [2], below 10 nM.

Consider `CC(C)NC(=O)N1CCN(c2ccnn3cc(-c4cnn([C@@H]5CCCN(C(C)C)C5)c4)cc23)CC1` [Compound 556], for which the half-inhibitory concentration (IC50) in assay [1] is below 100 nM; in assay [2] it was below 10 nM.

For the molecule `CC(C)NC(=O)N1CCN(c2ccnn3cc(-c4cnn([C@H]5CCCN(C(C)C)C5)c4)cc23)CC1` [Compound 557], the 50% inhibitory concentration (IC50) in assay [1] is below 100 nM; in assay [2] it was below 10 nM.

Turning to `O=C(OC1COC1)N1CCN(c2ccnn3cc(-c4ccc([C@]5(F)CCCNC5)cc4)cc23)CC1` [Compound 558], the IC50 is below 100 nM in assay [1] and below 10 nM in assay [2].

For `O=C(OC1COC1)N1CCN(c2ccnn3cc(-c4ccc([C@@]5(F)CCCNC5)cc4)cc23)CC1` [Compound 559], the 50% inhibitory concentration (IC50) was below 100 nM in assay [1] and below 10 nM in assay [2].

As to `CCC(C)N1CCC[C@@H](c2ccc(-c3cc4c(N5CCN(C(=O)C6CC6)CC5)ccnn4c3)cc2)C1` (some centres unmarked) [Compound 560], the concentration for half-maximal inhibition (IC50) in assay [1] is below 100 nM; in assay [2], below 10 nM.

On to `CC[C@H](C)N1CCC[C@@H](c2ccc(-c3cc4c(N5CCN(C(=O)C6CC6)CC5)ccnn4c3)cc2)C1` [Compound 561], for which the IC50 in assay [1] was below 100 nM; in assay [2], below 10 nM.

Consider `CC[C@@H](C)N1CCC[C@@H](c2ccc(-c3cc4c(N5CCN(C(=O)C6CC6)CC5)ccnn4c3)cc2)C1` [Compound 562], for which the 50% inhibitory concentration (IC50) is below 100 nM in assay [1] and below 10 nM in assay [2].

With `CC[C@@H](C)N1CCC(c2ccc(-c3cc4c(N5CCN(C(=O)C6CC6)CC5)ccnn4c3)cc2)CC1` [Compound 563], the 50% inhibitory concentration (IC50) in assay [1] is below 100 nM; in assay [2], below 10 nM.

`CC[C@H](C)N1CCC(c2ccc(-c3cc4c(N5CCN(C(=O)C6CC6)CC5)ccnn4c3)cc2)CC1` [Compound 564]: the IC50 in assay [1] was below 100 nM; in assay [2], below 10 nM.

Consider `CC(C)N1CCC(C)(c2ccc(-c3cc4c(N5CCN(C(=O)C6CC6)CC5)ccnn4c3)cc2)CC1` [Compound 565], for which the results for the 50% inhibitory concentration (IC50) in assay [1] and in assay [2] were below 100 nM and below 10 nM, respectively.

Regarding `CC(C)N1CCN(C)C(c2ccc(-c3cc4c(N5CCN(C(=O)C6CC6)CC5)ccnn4c3)cc2)C1` (centres unmarked) [Compound 566], the IC50 was below 100 nM in assay [1] and below 10 nM in assay [2].

As for `CC(C)N1CCN(C)[C@@H](c2ccc(-c3cc4c(N5CCN(C(=O)C6CC6)CC5)ccnn4c3)cc2)C1` [Compound 567], the IC50 in assay [1] is below 100 nM; in assay [2] it was below 10 nM.

On to `CC(C)N1CCN(C)[C@H](c2ccc(-c3cc4c(N5CCN(C(=O)C6CC6)CC5)ccnn4c3)cc2)C1` [Compound 568], for which the IC50 is below 100 nM in assay [1] and below 10 nM in assay [2].

For `CC(C)N1CCN[C@](C)(c2ccc(-c3cc4c(N5CCN(C(=O)C6CC6)CC5)ccnn4c3)cc2)C1` [Compound 570], the 50% inhibitory concentration (IC50) in assay [1] was below 100 nM; in assay [2], below 10 nM.

Consider `CO[C@]1(c2ccc(-c3cc4c(N5CCN(C(=O)C6CC6)CC5)ccnn4c3)cc2)CCN(C(C)C)C1` [Compound 572], for which the values for the IC50 in assay [1] and in assay [2] were below 100 nM and below 10 nM, respectively.

For `CO[C@@]1(c2ccc(-c3cc4c(N5CCN(C(=O)C6CC6)CC5)ccnn4c3)cc2)CCN(C(C)C)C1` [Compound 573], the IC50 in assay [1] was below 100 nM; in assay [2] it was below 10 nM.

For the molecule `CC(C)N1CCN[C@](C)(c2ccc(-c3cc4c(N5CCN(C(=O)C6CC6)CC5)ccnn4c3)nc2)C1` [Compound 575], the IC50 in assay [1] was 100 to 500 nM; in assay [2], below 10 nM.

The values are drawn from patent US10233186B2, “Inhibitors of activin receptor-like kinase” (BLUEPRINT MEDICINES CORPORATION, priority 2016, dated 2019).
